The values that follow come from paper PMC5454592, “Pharmacological and Toxicological Properties of the Potent Oral γ-Secretase Modulator BPN-15606” (The Journal of Pharmacology and Experimental Therapeutics, 2017).

For series [1], the system named is Notch proteolysis by γ-secretase. In words: Notch assay (Myc-tagged Notch NΔE in H4-APP751 neuroglioma cells). The class given is cell-based. How it is done: Notch assays were carried out as described previously ([Wagner et al., 2014]).
A further series in a line: PK in mouse (i.v./po). The class given is in vivo. To be noted: male, plasma, CD-1 mice, 5 mg/kg po vs 1 mg/kg i.v. How it is done:
Male CD-1 mice and male Sprague–Dawley rats were administered a single dose of BPN-15606 by i.v. or oral gavage (po) dose routes to assess oral bioavailability. Mice and rats received BPN-15606 as a single i.v. dose at 1 mg/kg (n = 5) or a single po dose at 5 mg/kg (n = 5). Blood was collected from mice and rats at 5 (i.v. only), 15, and 30 minutes, and 1, 2, 4, 8, and 12 hours postdose for processing to plasma. For mice, brains were collected from both dose groups (i.v. and po) at 1, 4, 8, and 12 hours postdose. For rats, brains were collected from those same animals at the 12-hour time point only. […]
Data were subjected to noncompartmental analysis using WinNonlin Phoenix Model 200 (for extravascular administration) or Model 201 (for i.v. bolus administration) and the sparse sampling feature; a uniform weighting factor was applied to each data set. Time to maximum plasma concentration (Tmax) and maximum plasma concentration (Cmax) values were determined directly from the data. Area under the plasma concentration–time curve to the last time point (AUClast) values were calculated using the log/linear trapezoidal (i.v. dose) or linear up/log down trapezoidal (po dose). Values were calculated using the plasma data from composite groups. […] The volume of distribution at steady state and clearance were calculated using the i.v. group data. […]

The nature of series [2]: PK in nonhuman primates (i.v./po). It counts as in vivo. To be noted: male, cynomolgus monkey, plasma; cynomolgus monkeys; 2 mg/kg po vs 1 mg/kg i.v. How it is done: Male non-naive cynomolgus monkeys (NHP) were administered BPN-15606 as a single nasogastric (po; 2 mg/kg) or i.v. (1 mg/kg) dose to assess oral bioavailability. Whole-blood samples were collected at specific time points and processed to plasma. Study in-life was conducted at Charles River Laboratories (Reno, NV). Pharmacokinetic (PK) plasma samples were shipped to SRI International for determination of drug concentrations. Samples were analyzed at SRI International using the bioanalytical method described above and validated for NHP plasma, and the LLOQ was 1 ng/ml. Data were subjected to noncompartmental analysis using WinNonlin Phoenix Model 200 (for extravascular administration) or Model 201 (for i.v. bolus administration) and the sparse sampling feature; a uniform weighting factor was applied to each data set. Time to maximum plasma concentration (Tmax) and maximum plasma concentration (Cmax) values were determined directly from the data. Area under the plasma concentration–time curve to the last time point (AUClast) values were calculated using the log/linear trapezoidal (i.v. dose) or linear up/log down trapezoidal (po dose). Values were calculated using the plasma data from composite groups. The dose administered was input to the program as mg/kg, and as a result no additional corrections for individual body weights of the animals were necessary. […]

The test system of another series is HReN-mGAP AD ReN cells. Briefly: CytoTox-ONE (lactate dehydrogenase) assay in 3D culture. The class given is cell-based. Particulars: 70 nM; 1-week-old treated media. How it is done: HReN-mGAP AD ReN cell expression APP^Swedish/London and Presenilin 1^ΔE9 were previously described ([Choi et al., 2014]). The HReN-mGAP AD ReN cells were three-dimensional (3D)–differentiated for 7 weeks, as previously described ([Choi et al., 2014]). The cultures were then harvested and analyzed for the soluble (conditioned media) and insoluble Aβ40/42/38 and p-tau/tau levels, using Meso Scale Discovery electrochemiluminescence system. BPN-15606 (70 nM) and the same volume of DMSO controls were treated in the last 4 weeks. The potential toxicity of the drugs was monitored by CytoTox-ONE (lactate dehydrogenase) assay after 1 week of the treatments. At the end of the treatments, the soluble (media) and the insoluble fractions (5 M GuHCl-soluble extracts) were collected and analyzed for Aβ38, Aβ40, and Aβ42 with MSD enzyme-linked immunosorbent assay (ELISA; V-Plex 6E10 Aβ40/Aβ42/Aβ38 kit). The custom-made plates were used for detecting total tau (BT2; ThermoFisher Scientific, Sommerset, NJ) and pThr181 tau (At270; ThermoFisher Scientific, Sommerset, NJ). The insoluble fraction was dissolved in 5 M GuHCl, and pThr181 tau, total tau, Aβ40, Aβ42, and Aβ38 concentrations were determined by MSD ELISA. The levels of the control protein Tuj1 were determined by dot-blot analysis in the GuHCl lysates (data not shown).

In another series the target is γ-secretase (Homo sapiens, UniProt P49768). In words: anti-Aβ immunoprecipitation/MALDI-TOF of neuronal cells. It counts as cell-based. Also on record: endogenous in cells; host or cells: 'neuronal cells' (not specified further). To be noted: neuronal cells treated overnight with 100 nM. How it is done: All Aβ assays, including the anti-Aβ immunoprecipitation/matrix-assisted laser desorption/ionization time of flight, were carried out as described previously ([Wagner et al., 2014]).

On to `COc1nc(-c2cc(C)c(N[C@@H](C)c3ccc(F)cc3)nn2)ccc1-n1cnc(C)c1` [BPN-15606, (S)-N-(1-(4-fluorophenyl)ethyl)-6-(6-methoxy-5-(4-methyl-1H-imidazol-1-yl)pyridin-2-yl)-4-methylpyridazin-3-amine], for which, in series [1] (H4-APP751 neuroglioma cells transfected with Myc-tagged Notch (NΔE) construct, Fig. 3), the Notch proteolysis result is recorded as “does not inhibit Notch proteolysis”. For the same molecule, the Notch cleavage entry in series [1] (doses as high as 25 μM) was “does not affect Notch cleavage”. The bioavailability (commonly the share of a dose that reaches the circulation, judged against a reference dose that is usually intravenous) in “PK in mouse (i.v./po)” is over 60%. In series [2], this molecule yielded a bioavailability of 30.8%. The “toxicity (Cytotox cell death lactate dehydrogenase assay)” value with HReN-mGAP AD ReN cells is “did not induce any significant toxicity”. In addition, at γ-secretase, the “Aβ37 peak (IP/MALDI-TOF)” value is reported as “significantly increased”, the “Aβ38 peak (IP/MALDI-TOF)” value is reported as “significantly increased”, the “Aβ40 peak (IP/MALDI-TOF)” value was “significantly reduce” and the “Aβ42 peak (IP/MALDI-TOF)” value is recorded as “completely eliminate the peak”.
